Source: ChEMBL document CHEMBL4819024, “Synthesis and evaluation of andrographolide derivatives as potent anti-osteoporosis agents in vitro and in vivo” (Eur J Med Chem, 2021)
Active and inactive are the calls of the source. No cut-off for these calls is given here.

Key:
BMMC [1] = assay: Anti-osteoporosis activity in C57BL/6 mouse BMM cells assessed as inhibition of M-CSF/RANKL-induced osteoclastogenesis by measuring reduction in multinucleated TRAP+ cells incubated for 5 days with media replenishment for every 48 hrs measured by TRAP-staining based analysis; assay type: functional, cell-based; details: C57BL/6, BMMC
BMMC [2] = assay: Anti-osteoporosis activity in C57BL/6 mouse BMM cells assessed as inhibition of M-CSF/RANKL-induced osteoclastogenesis by measuring reduction in size and number of osteoclasts incubated for 5 days with media replenishment for every 48 hrs measured by TRAP-staining based analysis; assay type: functional, cell-based; details: dose 0.03-10 µM, time 5.0 day
BMMC [3] = assay: Anti-osteoporosis activity in C57BL/6 mouse BMM cells assessed as inhibition of M-CSF/RANKL-induced bone resorption by measuring suppression of reabsorbing pits formation after 48 hrs by hydroxyapatite assay using Leica inverted microscope; assay type: functional, cell-based; details: dose 1-10 µM
Mus musculus [4] = assay: Antiosteoporotic activity against OVX-induced bone loss C57BL/6 mouse model assessed as increase in bone volume/total bone volume in femoral metaphysis at 10 mg/kg, po QD for 4 weeks; assay type: functional, organism-based; details: dose 10.0 mg/kg/day
Mus musculus [5] = assay: Antiosteoporotic activity against OVX-induced bone loss C57BL/6 mouse model assessed as increase in trabecular number in femoral metaphysis at 10 mg/kg, po QD for 4 weeks; assay type: functional, organism-based; details: dose 10.0 mg/kg/day
Mus musculus [6] = assay: Antiosteoporotic activity against OVX-induced bone loss C57BL/6 mouse model assessed as decrease in trabecular spacing in femoral metaphysis at 10 mg/kg, po QD for 4 weeks; assay type: functional, organism-based; details: dose 10.0 mg/kg/day
[7] = molecular target: c-Jun N-terminal kinase (Mus musculus) (UniProt Q91Y86+Q9WTU6+Q61831); assay: Inhibition of RANKL-induced JNK phosphorylation in mouse RAW264.7 cells at 1 to 10 uM pretreated for 4 hrs prior to RANKL stimulation for 20 mins by western blot analysis; assay type: cell-based; details: dose 1-10 µM, time 260.0 min
c-Jun N-terminal kinase (Mus musculus), sequence (Q61831 whole entry, looked up): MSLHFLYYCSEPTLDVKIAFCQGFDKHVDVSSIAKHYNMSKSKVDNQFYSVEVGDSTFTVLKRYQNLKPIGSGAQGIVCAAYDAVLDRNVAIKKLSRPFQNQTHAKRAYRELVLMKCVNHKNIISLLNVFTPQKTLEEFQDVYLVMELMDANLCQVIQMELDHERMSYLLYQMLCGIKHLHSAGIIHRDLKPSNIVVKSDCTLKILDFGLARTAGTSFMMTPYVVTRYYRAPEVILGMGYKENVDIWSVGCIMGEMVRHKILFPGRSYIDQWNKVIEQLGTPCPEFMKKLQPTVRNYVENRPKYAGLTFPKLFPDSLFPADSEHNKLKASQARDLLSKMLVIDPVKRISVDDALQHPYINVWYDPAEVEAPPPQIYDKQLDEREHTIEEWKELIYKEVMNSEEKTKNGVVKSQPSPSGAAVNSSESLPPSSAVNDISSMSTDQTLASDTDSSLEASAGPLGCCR
c-Jun N-terminal kinase (Mus musculus), sequence (Q91Y86 whole entry, looked up): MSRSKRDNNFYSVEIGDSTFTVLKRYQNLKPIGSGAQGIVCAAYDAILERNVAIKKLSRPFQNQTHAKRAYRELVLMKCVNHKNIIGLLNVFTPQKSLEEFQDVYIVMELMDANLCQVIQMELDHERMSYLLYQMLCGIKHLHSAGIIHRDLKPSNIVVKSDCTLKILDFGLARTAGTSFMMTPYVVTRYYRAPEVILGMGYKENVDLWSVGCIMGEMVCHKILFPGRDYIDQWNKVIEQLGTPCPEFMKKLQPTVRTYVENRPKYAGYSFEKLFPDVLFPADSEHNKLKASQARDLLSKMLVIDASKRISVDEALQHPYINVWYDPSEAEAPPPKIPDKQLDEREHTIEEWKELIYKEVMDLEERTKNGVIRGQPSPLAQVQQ
c-Jun N-terminal kinase (Mus musculus), sequence (Q9WTU6 whole entry, looked up): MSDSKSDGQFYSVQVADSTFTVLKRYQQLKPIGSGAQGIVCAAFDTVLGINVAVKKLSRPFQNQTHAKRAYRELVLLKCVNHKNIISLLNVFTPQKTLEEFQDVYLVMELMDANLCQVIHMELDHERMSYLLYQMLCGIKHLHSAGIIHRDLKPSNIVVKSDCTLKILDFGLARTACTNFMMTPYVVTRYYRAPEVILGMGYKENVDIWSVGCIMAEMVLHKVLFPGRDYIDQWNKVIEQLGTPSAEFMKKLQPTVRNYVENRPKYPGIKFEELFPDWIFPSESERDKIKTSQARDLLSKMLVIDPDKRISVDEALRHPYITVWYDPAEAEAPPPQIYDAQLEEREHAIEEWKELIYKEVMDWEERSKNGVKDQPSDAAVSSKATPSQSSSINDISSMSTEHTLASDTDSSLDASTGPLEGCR

[8] = Toxicity in OVX-induced bone loss C57BL/6 mouse model assessed as effect on heart morphology at 10 mg/kg, po QD for 4 weeks; assay type: organism-based; details: in vivo, 672 h
[9] = Toxicity in OVX-induced bone loss C57BL/6 mouse model assessed as effect on kidney morphology at 10 mg/kg, po QD for 4 weeks; assay type: organism-based; details: in vivo, 672 h
[10] = Toxicity in OVX-induced bone loss C57BL/6 mouse model assessed as effect on serum ALP level at 10 mg/kg, po QD for 4 weeks; assay type: organism-based; details: in vivo, 672 h, dose 10 mg/kg/day
[11] = Toxicity in OVX-induced bone loss C57BL/6 mouse model assessed as effect on serum LDH level at 10 mg/kg, po QD for 4 weeks; assay type: organism-based; details: in vivo, 672 h, dose 10 mg/kg/day

C=C1CC[C@@H]2[C@](C)(CNCc3ccc(F)cc3)[C@H](O)CC[C@@]2(C)[C@@H]1/C=C/C1=CCOC1=O
IC50 (BMMC [1]): 350 nM | Activity (BMMC [2]): Dose-Dependent Effect | Activity (BMMC [3]): Dose-Dependent Effect | Activity (Mus musculus [4]): Active | Activity (Mus musculus [5]): Active | Activity (Mus musculus [6]): Active | inhibition [7]: inactive | Activity [8]: Non-Toxic | Activity [9]: Non-Toxic | Activity [10]: Non-Toxic | Activity [11]: Non-Toxic
